Source: US20250304538A1, “PROCESS OF PREPARING REMIBRUTINIB SUBSTANTIALLY FREE OF NITROSAMINE IMPURITY” (NOVARTIS AG, priority 2024, published 2025)
Entries after “also recorded” stand apart in the source; their conditions may differ. Blank lines part the entries; values can stand above or below the molecule they belong to.

Columns and labels:
[1] = test system: Salmonella typhimurium strains TA98, TA100, TA1535 and TA1537; test: Enhanced Ames Test (EAT), pre-incubation method, Salmonella strains; type: cell-based
Protocol: N-(3-(6-amino-5-(2(methyl)(nitroso)amino)ethoxy)pyrimidin-4-yl)-5-fluoro-2-methylphenyl)-4-cyclopropyl-2-fluorobenzamide was evaluated in the EAT performed under GLP following the EMA and FDA guidance (2023) for the EAT conditions for N-nitrosamines.
In this study N-(3-(6-amino-5-(2(methyl)(nitroso)amino)ethoxy)pyrimidin-4-yl)-5-fluoro-2-methylphenyl)-4-cyclopropyl-2-fluorobenzamide was evaluated for mutations in Salmonella typhimurium strains TA98, TA100, TA1535 and TA1537 and Escherichia coli strain WP2 uvrA pKM101, both in the absence and presence of 30% rat and hamster metabolic activation (β-naphthoflavone/phenobarbital-induced rat and hamster liver post-mitochondrial S-9 fraction). The test used pre-incubation method (30 minutes). N-(3-(6-amino-5-(2(methyl)(nitroso)amino)ethoxy)pyrimidin-4-yl)-5-fluoro-2-methylphenyl)-4-cyclopropyl-2-fluorobenzamide was formulated in dimethyl sulfoxide (DMSO) at concentrations of 5, 16, 50, 160, 500, 1600 and 5000 μg/plate.

[2] = Stability of intermediate F8: nitrosamine content overtime (air exposure, storage); type: physicochemical; conditions: upon exposure to the air or upon storage
Protocol: • Limit-test by LC-MS (SIM mode), AJS-ES, positive mode, SIM Ion: 483.2 [M+H]+ • Column: YMC-Triart C18, 100×3.0 mm, particle size 1.9 μm, 12 nm • Mobile phase A: Dissolve 0.315 g of Ammonium formate in 1000 mL of water, add 0.5 mL of formic acid • Mobile phase B: Methanol • Sample solvent: Methanol+0.2% (v/v) Formic acid • Sample solution: approx. 100 mg of the sample in 20 mL • Flow: 0.6 mL/min • Injection volume: 3 μL • Autosampler cooled, 8° C. • Column temperature. 80° C.
Same method was used to determine the level of nitrosamine content in intermediate F8, in salts or in solvate of LOU064.
The content of nitrosamine in intermediate F8 was determined using method described in Example 1.

[3] = Accelerated predictive stability (APS) of LOU064 drug substance, open dish; type: physicochemical; conditions: all APS open dish conditions
Protocol: In order to assess the stability behavior of the nitrosamine impurity (N-(3-(6-amino-5-(2(methyl)(nitroso)amino)ethoxy)pyrimidin-4-yl)-5-fluoro-2-methylphenyl)-4-cyclopropyl-2-fluorobenzamide) in LOU064 drug substance, an accelerated predictive stability (APS) was performed.
A statistical based approach, Accelerated Predictive Stability (APS), using the humidity modified Arrhenius equation [Waterman and al., International Journal of Pharmaceutics 293 (1-2), 101-125 (2005)] is applied to understand stability behavior and predict the retest period. […] Short studies are conducted on open dish samples of representative batch (es) of drug substance at accelerated conditions using a wide range of temperatures and humidity with the goal of reaching the specification limit for the identified retest period limiting attributes at each condition as detailed below. […] The humidity corrected Arrhenius equation reflects both the influence of the temperature, and the moisture on the kinetics of the degradation product formation. The resulting open-dish data are fitted to a humidity-corrected Arrhenius equation^1 using ASAPprime® (current version 6.0): […]
3 batches of LOU064 drug substance were placed in open dish under the protocol summarized below:
(§1) The pulled samples were analyzed by HPLC-MS as per method described in example 1 and reported below in tables 9 and 10.

[4] = APS of LOU064 drug substance, closed container with or without nitrogen purge; type: physicochemical; conditions: 60-80 °C, up to 27 days
Protocol: Samples of batches of LOU064 drug substance were prepared in duplicated in closed container, with one sample being purged with nitrogen and the other not.
as §1

SMILES: CCN(CC)N=O [NDEA, N-nitrosodiethylamine, reference compound]
induced mutations ([1]; strain TA100, presence of 30% rat S-9): > 2 fold

content of nitrosamine in intermediate F8 (trend) [2]: increased overtime
SMILES: CNCCOc1c(N)ncnc1-c1cc(F)cc(NC(=O)c2ccc(C3CC3)cc2F)c1C [F8]

SMILES: CN(CCc1ccccc1)N=O [MNPA, N-methyl-N-nitroso-(2-phenylethyl)amine, reference compound]
Increases (mutations) ([1]; strain TA98, presence of hamster S-9): up to 1.9

SMILES: Cc1c(NC(=O)c2ccc(C3CC3)cc2F)cc(F)cc1-c1ncnc(N)c1OCCN(C)N=O [N-(3-(6-amino-5-(2(methyl)(nitroso)amino)ethoxy)pyrimidin-4-yl)-5-fluoro-2-methylphenyl)-4-cyclopropyl-2-fluorobenzamide]
mutagenicity ([1]; in the presence of rat S-9): not mutagenic
Enhanced Ames Test (EAT) outcome ([1]; overall conclusion of the EAT): positive; also recorded: mutagenic under sensitive metabolic conditions
increases in revertant numbers ([1]; strain TA100, presence of hamster S-9): 2 fold
increases in revertant numbers ([1]; strain TA1535, presence of hamster S-9): 3 fold
mutagenicity ([1]; without metabolic activation): not mutagenic

stability behavior of the nitrosamine impurity (in words) [3]: stable
SMILES: C=CC(=O)N(C)CCOc1c(N)ncnc1-c1cc(F)cc(NC(=O)c2ccc(C3CC3)cc2F)c1C [LOU064 drug substance, N-(3-(6-Amino-5-(2-(N-methylacrylamido)ethoxy)pyrimidin-4-yl)-5-fluoro-2-methylphenyl)-4-cyclopropyl-2-fluorobenzamide]
nitrosamine, stored closed under nitrogen versus closed without nitrogen (in words) [4]: no difference observed beyond analytical variability
